Experimental data published in US20260217652A1, “PHENYL-SUBSTITUTED HETEROARYL COMPOUND AND PHARMACEUTICAL COMPOSITION COMPRISING SAME, PREPARATION METHOD THEREFOR AND USE THEREOF” (SHANGHAI MEIYUE BIOTECH DEVELOPMENT CO., LTD., priority 2023, published 2026).
Read-outs that look alike come from different tables or passages of the source.

Legend:
[1] = In vitro liver microsome stability, human; format: in vitro ADME; conditions: liver microsomes, 0.5 mg/mL microsomes, 1 μM compound, NADPH, 37° C., read-out: Human liver microsomes Half-life T1/2
Protocol: (§1) The reference compound used in this experiment was Ketanserin, and the final concentration of microsomes in the experimental system was 0.5 mg/mL. The PBS buffer was a 50 mM K2HPO4 buffer. The concentration of the test compound was 1 μM. The microsomes were added to PBS, and the control/test compounds were respectively added to the corresponding reaction systems, mixed thoroughly, and pre-incubated in a 37° C. water bath for 5 minutes. The reaction was initiated by adding 20 mM NADPH solution under 37° C. water bath conditions (for the No NADPH samples, an equal volume of PBS solution was used as a substitute for the 20 mM NADPH solution). At the reaction time points of 0 min, 10 min, 30 mun, 60 min, and 90 min, 30 μL of reaction samples were taken from each reaction system (for the No NADPH samples, sampling was performed at 0 min and 90 min), and the reaction was immediately terminated by adding 300 μL of the internal standard acetonitrile solution. After centrifugation at 4000 rpm, the supernatant was taken and mixed thoroughly with an equal volume of pure water. The samples at each time point were analyzed by LC-MS/MS (AB Triple Quard 5500) to determine the compound content, and the T1/2 was calculated.

[2] = Pharmacokinetic evaluation in mice; format: in vivo; conditions: mouse, plasma; for AUC(0-t): read-out: Area under curve AUC0-24 h; for half-life: read-out: Half-life T1/2 (converted)
Protocol: The compound was weighed and dissolved in a mixed solvent of DMAC: Solutol: PBS (1:1:8. After intravenous/gastric administration to mice, whole blood ([…]) was collected at 0.083, 0.25, 0.5, 1, 2, 4, 7, and 24 hours. The samples were anticoagulated with EDTA-K2, immediately centrifuged at 4000 rpm for 5 minutes at 4° C., and the supernatant was frozen in a −80° C. refrigerator. Plasma sample processing: The samples were precipitated with an internal standard-containing CH3CN precipitant, followed by centrifugation at 12700 rpm for 10 min. The supernatant was collected and analyzed by LC-MS/MS (AB Triple Quard 5500) to obtain the plasma drug concentration. The parameters were calculated using a non-compartmental model in Winnolin version 8.1.

p38 MAPK/MK2 = molecular target: T1, p38 MAPK/MK2 (Homo sapiens, UniProt Q16539); assay: In vitro activity assay of p38 MAPK/MK2 (Z-LYTE kinase assay kit); format: biochemical; conditions: active p38α, inactive MK2, Ser/Thr 4; 1-hour reaction at 20° C.
T1 construct: purchased Carna (p38α); Abcam (MK2) 04-152; 79910
T1 sequence (Q16539 whole entry): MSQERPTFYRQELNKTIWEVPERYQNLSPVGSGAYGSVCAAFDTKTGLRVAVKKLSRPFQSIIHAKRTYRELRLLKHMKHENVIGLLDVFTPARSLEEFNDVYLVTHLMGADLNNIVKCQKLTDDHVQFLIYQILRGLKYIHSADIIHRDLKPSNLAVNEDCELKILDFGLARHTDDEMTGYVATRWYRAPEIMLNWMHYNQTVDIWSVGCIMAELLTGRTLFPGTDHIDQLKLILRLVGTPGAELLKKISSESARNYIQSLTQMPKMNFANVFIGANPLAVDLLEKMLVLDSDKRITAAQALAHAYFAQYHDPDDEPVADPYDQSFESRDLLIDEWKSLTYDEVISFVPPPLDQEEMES
T1 sequence (P49137 whole entry partner): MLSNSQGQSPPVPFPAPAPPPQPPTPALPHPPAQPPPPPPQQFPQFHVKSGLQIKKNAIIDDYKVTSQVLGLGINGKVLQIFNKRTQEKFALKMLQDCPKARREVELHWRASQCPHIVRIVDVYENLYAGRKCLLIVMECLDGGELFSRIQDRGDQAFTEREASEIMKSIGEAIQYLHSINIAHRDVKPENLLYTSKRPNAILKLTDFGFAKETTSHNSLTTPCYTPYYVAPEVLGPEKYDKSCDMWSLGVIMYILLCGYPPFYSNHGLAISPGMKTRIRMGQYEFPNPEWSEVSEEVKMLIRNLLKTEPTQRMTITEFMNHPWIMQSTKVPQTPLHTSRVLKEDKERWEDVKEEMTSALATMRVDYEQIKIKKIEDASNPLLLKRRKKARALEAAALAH
Summary of the method: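 FRET-based Z-LYTE assay; compound tested from […] top concentration, 5-fold serial dilution, 8 points, duplicate wells, 1% DMSO. Kinase reaction 1 h at 20° C, then development reagent 1 h at room temperature; fluorescence read at Ex 400/Em 445 and 520 nm. IC50 from concentration-effect curve fit.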

[3] = In vitro liver microsome stability, mouse; format: in vitro ADME; conditions: liver microsomes, 0.5 mg/mL microsomes, 1 μM compound, NADPH, 37° C., read-out: Mouse liver microsomes Half-life T1/2
Protocol: as §1

[4] = In vitro liver microsome stability, rat; format: in vitro ADME; conditions: liver microsomes, 0.5 mg/mL microsomes, 1 μM compound, NADPH, 37° C., read-out: Rat liver microsomes Half-life T1/2
Protocol: as §1

p38 MAPK/MK5 = molecular target: T2, p38 MAPK/MK5 (Homo sapiens, UniProt Q16539); assay: In vitro activity assay of p38 MAPK/MK5 (Z-LYTE kinase assay kit); format: biochemical; conditions: active p38α, inactive MK5, Ser/Thr 4; 4-hour reaction at 20° C.
T2 construct: purchased Carna (p38α); Abcam (MK5) 04-152; 217826
T2 sequence (Q16539 whole entry): as the sequence (Q16539 whole entry) above
Protocol: The inhibitory effect of the compound on p38 MAPK/MK5 was evaluated using the Z-LYTE kinase assay kit (Thermo, PV3177). The test compound was dissolved in DMSO to obtain a 10 mM stock solution and stored at −20° C. for future use. The initial concentration of the compound was […], with 1% DMSO, 5-fold serial dilution, 8 concentrations, and duplicate wells. […] After a 4-hour reaction at 20° C., Development Reagent A diluted 2048-fold was added to each well, followed by incubation at room temperature for 1 hour. The reaction was terminated by adding 5 µL of stop buffer, and the plate was read using a microplate reader (Ex. 400 nm, Em. 445 nm; Ex. 400 nm, Em. 520 nm). The concentration-effect curve was fitted using GraphPad Prism 8 software, and the compound concentration resulting in 50% inhibition, IC50, was calculated.

[5] = intravenous injection group 1 mg/kg
[6] = po, intragastric administration group 5 mg/kg

half-life at 1 μM [1]: > 4.66 h
AUC(0-t) [2, 5]: 1360 ng·h/mL
clearance ([2]; intravenous injection group 1 mg/kg, read-out: Clearance CL (converted)): 12.3 mL/min/kg
half-life [2, 5]: 0.57 h
C0 ([2]; intravenous injection group 1 mg/kg, read-out: Initial concentration C0): 2150 ng/mL
Vd ([2]; intravenous injection group 1 mg/kg, read-out: Volume of distribution Vd): 0.47 L/kg
AUC(0-t) [2, 6]: 2070 ng·h/mL
bioavailability ([2]; po, intragastric administration group 5 mg/kg, read-out: Bioavailability F %): 30.5%
half-life [2, 6]: 3.24 h
Cmax ([2]; po, intragastric administration group 5 mg/kg, read-out: Maximum concentration Cmax): 979 ng/mL
IC50 (p38 MAPK/MK2): 0.00279 µM
half-life at 1 μM [3]: 1.79 h
half-life at 1 μM [4]: 2.76 h
IC50 (p38 MAPK/MK5): 4.34 µM
SMILES: CNC(=O)c1cccc(-c2ncc(C)c(-n3c(C)cc(OCc4ncc(F)cc4F)c(Cl)c3=O)c2F)c1 [Compound 31-P1]
